From ChEMBL document CHEMBL3991601, “The target landscape of clinical kinase drugs” (Science, 2017)
Activity calls are given as the source filed them. Cut-off read from the data, not from the text of the source, for most assays here: actives have a measured Kd and inactives only a lower limit.

Tests used:
[1] = biological target: DnaJ homolog subfamily A member 1 (Homo sapiens, UniProt P31689)
[2] = biological target: T1, Ras-related protein Rab-10 (Homo sapiens, UniProt P61026)
T1 sequence (P61026 whole entry): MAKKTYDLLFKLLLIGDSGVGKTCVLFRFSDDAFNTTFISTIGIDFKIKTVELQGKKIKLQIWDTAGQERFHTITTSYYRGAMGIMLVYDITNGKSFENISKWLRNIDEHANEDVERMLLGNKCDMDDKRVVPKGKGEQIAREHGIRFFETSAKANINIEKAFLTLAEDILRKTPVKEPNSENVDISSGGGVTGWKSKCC

[3] = biological target: T2, ATP-dependent 6-phosphofructokinase, platelet type (Homo sapiens, UniProt Q01813)
T2 sequence (Q01813 whole entry): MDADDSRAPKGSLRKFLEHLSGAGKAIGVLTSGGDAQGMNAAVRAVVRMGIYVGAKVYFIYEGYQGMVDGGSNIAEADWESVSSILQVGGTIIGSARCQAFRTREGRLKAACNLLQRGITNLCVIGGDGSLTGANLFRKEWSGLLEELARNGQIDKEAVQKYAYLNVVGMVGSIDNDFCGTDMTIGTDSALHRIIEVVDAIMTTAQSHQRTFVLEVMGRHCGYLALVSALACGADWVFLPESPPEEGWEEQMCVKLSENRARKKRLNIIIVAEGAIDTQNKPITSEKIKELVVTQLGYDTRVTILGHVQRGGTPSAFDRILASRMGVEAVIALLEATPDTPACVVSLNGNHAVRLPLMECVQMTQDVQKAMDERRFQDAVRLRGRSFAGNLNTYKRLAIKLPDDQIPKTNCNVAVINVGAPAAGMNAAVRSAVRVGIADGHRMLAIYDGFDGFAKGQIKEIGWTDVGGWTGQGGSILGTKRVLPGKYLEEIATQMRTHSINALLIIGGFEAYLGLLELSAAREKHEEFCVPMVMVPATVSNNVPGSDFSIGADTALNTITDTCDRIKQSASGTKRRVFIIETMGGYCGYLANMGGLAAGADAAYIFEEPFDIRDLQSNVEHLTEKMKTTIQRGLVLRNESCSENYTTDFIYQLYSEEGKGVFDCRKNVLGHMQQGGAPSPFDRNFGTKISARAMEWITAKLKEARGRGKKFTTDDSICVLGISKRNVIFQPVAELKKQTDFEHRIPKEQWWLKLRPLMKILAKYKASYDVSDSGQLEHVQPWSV

[4] = biological target: Maternal embryonic leucine zipper kinase (Homo sapiens, UniProt Q14680)
Sequence of Maternal embryonic leucine zipper kinase (Q14680 whole entry): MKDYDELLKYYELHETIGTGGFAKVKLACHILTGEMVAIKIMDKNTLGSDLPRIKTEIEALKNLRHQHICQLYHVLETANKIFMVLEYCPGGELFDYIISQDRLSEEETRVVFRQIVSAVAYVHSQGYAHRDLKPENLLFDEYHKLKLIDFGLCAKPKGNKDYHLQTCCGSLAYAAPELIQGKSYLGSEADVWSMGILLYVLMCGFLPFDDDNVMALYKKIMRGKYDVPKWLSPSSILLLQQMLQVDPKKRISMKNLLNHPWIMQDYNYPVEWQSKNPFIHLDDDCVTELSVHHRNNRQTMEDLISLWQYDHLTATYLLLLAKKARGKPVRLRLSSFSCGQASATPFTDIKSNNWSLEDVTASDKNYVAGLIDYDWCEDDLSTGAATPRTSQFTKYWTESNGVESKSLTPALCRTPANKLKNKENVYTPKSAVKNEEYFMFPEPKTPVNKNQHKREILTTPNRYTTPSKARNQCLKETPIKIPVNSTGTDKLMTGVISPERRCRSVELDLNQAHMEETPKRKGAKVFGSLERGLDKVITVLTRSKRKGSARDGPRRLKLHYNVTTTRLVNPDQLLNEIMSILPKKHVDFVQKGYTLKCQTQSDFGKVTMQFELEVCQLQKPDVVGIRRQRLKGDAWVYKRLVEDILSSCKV

[5] = biological target: T3, Dual specificity mitogen-activated protein kinase kinase 3 (Homo sapiens, UniProt P46734)
T3 sequence (P46734 whole entry): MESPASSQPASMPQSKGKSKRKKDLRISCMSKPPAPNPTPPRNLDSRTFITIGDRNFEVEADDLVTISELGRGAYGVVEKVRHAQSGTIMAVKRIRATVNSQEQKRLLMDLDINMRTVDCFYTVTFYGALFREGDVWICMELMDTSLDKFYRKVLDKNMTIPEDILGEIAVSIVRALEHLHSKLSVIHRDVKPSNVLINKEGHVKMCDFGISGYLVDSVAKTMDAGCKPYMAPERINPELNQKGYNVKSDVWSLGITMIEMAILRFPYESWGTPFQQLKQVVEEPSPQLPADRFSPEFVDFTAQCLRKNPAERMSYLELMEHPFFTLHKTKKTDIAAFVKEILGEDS

[6] = biological target: T4, Serine/threonine-protein kinase TBK1 (Homo sapiens, UniProt Q9UHD2)
T4 sequence (Q9UHD2 whole entry): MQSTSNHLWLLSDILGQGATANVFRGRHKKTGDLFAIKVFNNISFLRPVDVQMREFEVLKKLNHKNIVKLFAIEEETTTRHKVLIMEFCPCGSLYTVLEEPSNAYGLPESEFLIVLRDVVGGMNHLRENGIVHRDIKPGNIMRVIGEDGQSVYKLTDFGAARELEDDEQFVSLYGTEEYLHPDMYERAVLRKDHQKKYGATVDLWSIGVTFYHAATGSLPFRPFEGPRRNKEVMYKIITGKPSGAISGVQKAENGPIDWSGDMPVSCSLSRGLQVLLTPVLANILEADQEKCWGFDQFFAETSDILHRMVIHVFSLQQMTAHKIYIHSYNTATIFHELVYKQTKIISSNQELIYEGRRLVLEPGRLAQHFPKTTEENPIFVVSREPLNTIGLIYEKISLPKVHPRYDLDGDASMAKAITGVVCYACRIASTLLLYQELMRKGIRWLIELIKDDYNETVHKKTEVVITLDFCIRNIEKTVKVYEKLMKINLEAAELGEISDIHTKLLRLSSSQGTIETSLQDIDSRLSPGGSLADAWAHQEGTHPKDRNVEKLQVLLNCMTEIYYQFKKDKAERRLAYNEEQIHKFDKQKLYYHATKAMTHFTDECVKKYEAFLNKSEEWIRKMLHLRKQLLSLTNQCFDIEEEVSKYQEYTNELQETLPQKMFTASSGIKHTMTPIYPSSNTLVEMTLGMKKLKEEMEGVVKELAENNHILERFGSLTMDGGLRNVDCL

[7] = biological target: cAMP-dependent protein kinase catalytic subunit beta (Homo sapiens, UniProt P22694)
[8] = biological target: Macrophage-stimulating protein receptor (Homo sapiens, UniProt Q04912)
Sequence of Macrophage-stimulating protein receptor (Q04912 25-304 limits assumed): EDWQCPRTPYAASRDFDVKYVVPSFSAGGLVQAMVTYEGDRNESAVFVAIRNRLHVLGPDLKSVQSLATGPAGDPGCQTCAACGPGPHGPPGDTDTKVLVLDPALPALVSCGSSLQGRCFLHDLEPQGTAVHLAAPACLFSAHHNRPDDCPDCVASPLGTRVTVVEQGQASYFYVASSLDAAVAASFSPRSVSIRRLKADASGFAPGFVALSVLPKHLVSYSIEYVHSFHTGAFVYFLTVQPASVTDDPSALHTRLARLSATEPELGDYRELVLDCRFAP
Sequence of Macrophage-stimulating protein receptor (Q04912 310-1400 limits assumed): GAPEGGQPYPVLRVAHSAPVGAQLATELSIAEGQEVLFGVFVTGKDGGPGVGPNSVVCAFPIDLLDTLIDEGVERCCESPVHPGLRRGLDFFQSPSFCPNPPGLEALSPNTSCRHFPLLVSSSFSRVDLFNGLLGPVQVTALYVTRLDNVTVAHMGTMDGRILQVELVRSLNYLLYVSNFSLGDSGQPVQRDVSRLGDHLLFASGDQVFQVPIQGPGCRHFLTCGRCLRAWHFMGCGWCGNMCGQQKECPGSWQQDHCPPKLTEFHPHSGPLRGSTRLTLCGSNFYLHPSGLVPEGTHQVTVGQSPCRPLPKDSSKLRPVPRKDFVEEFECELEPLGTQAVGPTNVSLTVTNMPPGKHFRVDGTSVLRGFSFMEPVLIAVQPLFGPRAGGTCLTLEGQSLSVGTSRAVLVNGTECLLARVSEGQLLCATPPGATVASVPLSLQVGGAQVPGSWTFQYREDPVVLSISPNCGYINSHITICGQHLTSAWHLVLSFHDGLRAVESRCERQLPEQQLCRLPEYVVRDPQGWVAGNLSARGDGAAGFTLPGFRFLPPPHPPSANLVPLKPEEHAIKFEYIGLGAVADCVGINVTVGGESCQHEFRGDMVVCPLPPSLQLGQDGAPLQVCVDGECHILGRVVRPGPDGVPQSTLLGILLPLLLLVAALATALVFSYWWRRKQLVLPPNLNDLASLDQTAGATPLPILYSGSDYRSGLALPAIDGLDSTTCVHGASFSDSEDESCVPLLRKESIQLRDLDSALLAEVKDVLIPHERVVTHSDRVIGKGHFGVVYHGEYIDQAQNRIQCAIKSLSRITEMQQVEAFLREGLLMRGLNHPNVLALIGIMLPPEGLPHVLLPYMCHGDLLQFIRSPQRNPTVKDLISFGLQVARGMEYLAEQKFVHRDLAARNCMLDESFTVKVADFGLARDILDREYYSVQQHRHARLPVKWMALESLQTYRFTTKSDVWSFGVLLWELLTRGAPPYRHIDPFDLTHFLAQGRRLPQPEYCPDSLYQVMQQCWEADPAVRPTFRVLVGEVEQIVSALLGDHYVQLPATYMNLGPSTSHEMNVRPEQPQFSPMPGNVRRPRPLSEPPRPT

[9] = biological target: T5, Serine/threonine-protein kinase ULK3 (Homo sapiens, UniProt Q6PHR2)
T5 sequence (Q6PHR2 whole entry): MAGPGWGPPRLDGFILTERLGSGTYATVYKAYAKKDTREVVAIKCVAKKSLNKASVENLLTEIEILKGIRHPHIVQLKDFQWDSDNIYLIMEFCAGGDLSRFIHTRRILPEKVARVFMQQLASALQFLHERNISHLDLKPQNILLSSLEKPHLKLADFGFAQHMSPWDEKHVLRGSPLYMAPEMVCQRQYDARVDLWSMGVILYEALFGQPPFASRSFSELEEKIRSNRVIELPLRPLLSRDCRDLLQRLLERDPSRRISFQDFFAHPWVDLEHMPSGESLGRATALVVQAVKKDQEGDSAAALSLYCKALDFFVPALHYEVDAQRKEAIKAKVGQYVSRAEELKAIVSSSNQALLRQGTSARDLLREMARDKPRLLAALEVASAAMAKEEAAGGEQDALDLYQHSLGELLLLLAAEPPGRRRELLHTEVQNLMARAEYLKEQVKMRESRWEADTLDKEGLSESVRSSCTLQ
Note: in the data inactive means no Kd found up to 30 µM.

Sequence of DnaJ homolog subfamily A member 1 (P31689 whole entry): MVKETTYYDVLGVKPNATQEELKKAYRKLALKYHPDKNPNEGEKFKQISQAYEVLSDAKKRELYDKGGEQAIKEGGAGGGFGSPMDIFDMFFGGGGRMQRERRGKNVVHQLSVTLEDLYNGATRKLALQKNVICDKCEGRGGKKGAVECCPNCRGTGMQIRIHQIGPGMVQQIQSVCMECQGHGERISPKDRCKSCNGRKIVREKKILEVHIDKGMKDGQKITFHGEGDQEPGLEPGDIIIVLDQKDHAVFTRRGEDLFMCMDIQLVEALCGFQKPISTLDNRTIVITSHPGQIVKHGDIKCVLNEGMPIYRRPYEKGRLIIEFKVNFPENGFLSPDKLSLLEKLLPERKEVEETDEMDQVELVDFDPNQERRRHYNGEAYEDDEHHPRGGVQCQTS

SMILES	Kd [1]	Kd [2]	Kd [3]	Kd [4]	Kd [5]	Kd [6]	Kd [7]	Kd [8]	Kd [9]
CCc1nc(C(N)=O)c(Nc2ccc(N3CCC(N4CCN(C)CC4)CC3)c(OC)c2)nc1NC1CCOCC1 [GILTERITINIB]	> 30 µM (inactive)	> 30 µM (inactive)	> 30 µM (inactive)	> 30 µM (inactive)	> 30 µM (inactive)	> 30 µM (inactive)	> 30 µM (inactive)	0.804 µM (active)	0.006 µM (active)
COc1cc2ncnc(Nc3ccc(O)cc3)c2cc1OC [WHI-P131]	> 30 µM (inactive)	> 30 µM (inactive)	> 30 µM (inactive)	> 30 µM (inactive)	> 30 µM (inactive)	> 30 µM (inactive)	> 30 µM (inactive)	> 30 µM (inactive)	> 30 µM (inactive)
O[C@H]1CC[C@H](Nc2ncc3nc(Nc4c(F)cc(F)cc4F)n([C@H]4CCOC4)c3n2)CC1 [TANZISERTIB]	> 30 µM (inactive)	> 30 µM (inactive)	> 30 µM (inactive)	> 30 µM (inactive)	> 30 µM (inactive)	> 30 µM (inactive)	> 30 µM (inactive)	> 30 µM (inactive)	> 30 µM (inactive)
Cc1ccc(C(=O)Nc2ccc(Oc3cc4cnn(C)c4cc3-c3cn[nH]c3)c(F)c2)c(=O)n1-c1ccc(F)cc1 [MERESTINIB]	> 30 µM (inactive)	> 30 µM (inactive)	> 30 µM (inactive)	> 30 µM (inactive)	> 30 µM (inactive)	> 30 µM (inactive)	> 30 µM (inactive)	0.232 µM	> 30 µM (inactive)
Cn1cc(-c2[nH]c3cc(NC(=O)[C@H](N)C4CCCCC4)cc4c3c2C=NNC4=O)cn1	> 30 µM (inactive)	> 30 µM (inactive)	> 30 µM (inactive)	45.7 µM (active)	> 30 µM (inactive)	> 30 µM (inactive)	> 30 µM (inactive)	> 30 µM (inactive)	1.17 µM (active)
C=CC(=O)Nc1cc(Nc2nccc(-c3cn(C)c4ccccc34)n2)c(OC)cc1N(C)CCN(C)C [OSIMERTINIB]	> 30 µM (inactive)	> 30 µM (inactive)	> 30 µM (inactive)	> 30 µM (inactive)	> 30 µM (inactive)	> 30 µM (inactive)	> 30 µM (inactive)	> 30 µM (inactive)	> 30 µM (inactive)
CN1CCN(c2nc(C3=C(c4c[nH]c5ccccc45)C(=O)NC3=O)c3ccccc3n2)CC1 [SOTRASTAURIN]	> 30 µM (inactive)	> 30 µM (inactive)	> 30 µM (inactive)	> 30 µM (inactive)	> 30 µM (inactive)	> 30 µM (inactive)	> 30 µM (inactive)	> 30 µM (inactive)	> 30 µM (inactive)
c1cc(OCCN2CCCCC2)cc(-c2n[nH]c3ccc(-c4nc[nH]n4)cc23)c1 [CC-401]	> 30 µM (inactive)	> 30 µM (inactive)	> 30 µM (inactive)	0.217 µM (active)	> 30 µM (inactive)	> 30 µM (inactive)	> 30 µM (inactive)	> 30 µM (inactive)	> 30 µM (inactive)

Results, then the compound that gave them:

Kd [1]	Kd [2]	Kd [3]	Kd [4]	Kd [5]	Kd [6]	Kd [7]	Kd [8]	Kd [9]	SMILES
> 30 µM (inactive)	> 30 µM (inactive)	> 30 µM (inactive)	> 30 µM (inactive)	> 30 µM (inactive)	> 30 µM (inactive)	> 30 µM (inactive)	> 30 µM (inactive)	> 30 µM (inactive)	COc1cccc2cc(-c3nc([C@H]4CC[C@H](C(=O)O)CC4)n4ncnc(N)c34)[nH]c12 [OSI-027]
> 30 µM (inactive)	> 30 µM (inactive)	> 30 µM (inactive)	> 30 µM (inactive)	> 30 µM (inactive)	> 30 µM (inactive)	> 30 µM (inactive)	> 30 µM (inactive)	> 30 µM (inactive)	Cc1cc(C(=O)Nc2cc(Oc3ccc4nc(NC(=O)C5CC5)cn4n3)ccc2C)n(C)n1 [TAK-593]
> 30 µM (inactive)	> 30 µM (inactive)	> 30 µM (inactive)	> 30 µM (inactive)	> 30 µM (inactive)	> 30 µM (inactive)	> 30 µM (inactive)	> 30 µM (inactive)	> 30 µM (inactive)	NC(=O)c1ccc(N(C(N)=O)c2c(F)cccc2F)nc1-c1ccc(F)cc1F [VX-702]
